Earlier results as cited in US20260345480A1, “PHARMACEUTICAL DOSAGE FORMS FOR PULSATILE RELEASE” (CHIESI FARMACEUTICI S.P.A., priority 2023, published 2026).

Test system: animals
Conditions: continuous infusion for periods longer than 24 hours

## Cc1c(O)c(=O)ccn1C [deferiprone]
  toxicity on continuous infusion (in words): potential toxicity of deferiprone observed in animals undergoing continuous infusion for periods longer than 24 hours
